Measurements: patent US5322850A, “Antiallergic piperidine derivatives of benzimidazole” (Fabrica Espanola de Productos Quimicos y Farmaceuticos, S.A., priority 1992, dated 1994)
Several values for one entry are separate records, joined by “and”; a condition that tells them apart may be missing. Identical values can stand only once.

Key:
[1] = target: H1 (Cavia porcellus, UniProt P31389); assay: H1-antihistaminic activity in vitro: histamine-induced contractions of isolated guinea-pig ileum; settings: pH 7.4, 37° C., 20 min after antagonist, (n) given
Experimental: H1 -antihistaminic activity in vitro: Histamine-induced contractions of isolated guinea-pig ileum.
Distal ileum was obtained from male albino guinea pig (300-500 g). All animals were fasted overnight and killed by cervical dislocation and then exsanguinated. […] The tissue was washed by upward displacement of the bathing fluid. With an effective 1.2 g loading tension, the ileum was kept for 45 min (stabilization period). An accumulative dose-response curve for histamine was isotonically recorded with increasing concentrations and the tissue, after washing with Tyrode solution, was allowed to equilibrate. Twenty minutes later a second concentration-response curve was obtained previous addition of different concentrations of antagonist drugs. The results were calculated from the concentration-response curves for histamine at each drug concentration. All the concentrations were tested 2 to 4 times.

[2] = system: CNS; assay: Preliminary study similar to Irwin's test in mice: effect on CNS; format: in vivo; set-up: key: --: If no effects were detected, no figures are shown
Experimental: A preliminary study similar to Irwins's test in mice was carried out at doses of 100 and 300 mg/kg at 1, 2, 3, 4 and 24 hours after the treatment. As reference ketotifene was used.

[3] = system: homologous passive cutaneous anaphylaxis (PCA); assay: Antiallergic activity in vivo: vascular permeability increase induced by 48 hours homologous passive cutaneous anaphylaxis (PCA) in rats; set-up: species or system rat (female Wistar)
Experimental: Antiallergic activity in vivo: Vascular permeability increase induced by 48 hours homologous passive cutaneous anaphylaxis (PCA) in rats. Female Wistar rats (120-150 g) were used. They were sensitized passively by intradermic injections of homologous ovoalbumin antiserum on both sides of the middle shaved-back line of the rat. Forty-eight hours later each test compound was administered orally at doses of 1 mg/kg (5 mg/kg when R^1 is a methyl group) and 1 h later PCA reaction was induced by iv injection of Evans blue solution and ovoalbumin in PSS solution. The animals were sacrificed 30 minutes after the dye injection and the skin was removed. The extravasated dye sites were extracted with formamide and the dye spectrophotometrically evaluated.

[4] = system: H1; assay: H1-antihistaminic activity in vivo: vascular permeability increase induced by histamine in rats; set-up: species or system rat (female Wistar)
Experimental: H1 -antihistaminic activity in vivo: Vascular permeability increase induced by histamine in rats.
Female Wistar rats (120-150 g) were used. They were fasted for 18 hours prior to the assay. […] 30 min after the dye injection, animals were sacrificed and the skin was removed. The extravasated dye sites were extracted with formamide and the dye spectrophotometrically evaluated.

[5] = 100 mg/kg, 1, 2, 3, 4 and 24 hours
[6] = 300 mg/kg, 1, 2, 3, 4 and 24 hours
[7] = rat, oral, 1 mg/kg, 1 h before PCA reaction
[8] = rat, oral, 1 mg/kg, 1 hour before histamine

H1 (Cavia porcellus, UniProt P31389), sequence (P31389 whole entry): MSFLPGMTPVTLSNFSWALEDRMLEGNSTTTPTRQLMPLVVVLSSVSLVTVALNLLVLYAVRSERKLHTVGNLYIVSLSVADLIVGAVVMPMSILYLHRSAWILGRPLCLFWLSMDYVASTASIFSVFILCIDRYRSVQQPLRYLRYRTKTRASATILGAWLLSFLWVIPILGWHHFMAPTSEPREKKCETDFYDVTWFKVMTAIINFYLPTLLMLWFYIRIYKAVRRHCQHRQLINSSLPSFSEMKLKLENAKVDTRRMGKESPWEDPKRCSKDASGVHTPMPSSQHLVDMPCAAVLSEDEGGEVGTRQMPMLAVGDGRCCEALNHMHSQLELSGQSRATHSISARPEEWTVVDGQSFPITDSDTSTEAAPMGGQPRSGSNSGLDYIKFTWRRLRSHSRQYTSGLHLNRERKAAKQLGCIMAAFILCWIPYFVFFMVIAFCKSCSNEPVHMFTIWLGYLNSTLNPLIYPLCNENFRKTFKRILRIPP

Structure (SMILES)	pD'2 [1]	Convulsions [2, 5]	Death [2, 5]	Hypothermia [2, 5]	Loss of pinneal reflex [2, 5]	Loss of right-time reflex [2, 5]	Palpebral Ptosis [2, 5]	Spontaneous Activity decrease [2, 5]	Convulsions [2, 6]	Death [2, 6]	Hypothermia [2, 6]	Loss of pinneal reflex [2, 6]	Loss of right-time reflex [2, 6]	Palpebral Ptosis [2, 6]	Spontaneous Activity decrease [2, 6]	Inhibition of the increase of vascular permeability by P.C.A. [3, 7]	Inhibition of the increase of vascular permeability by Histamine [4, 8]	Inhibition of the increase of vascular permeability by P.C.A. ([3]; po, 5 mg/kg)	Inhibition of the increase of vascular permeability by Histamine ([4]; po, 5 mg/kg)	Spontaneous Activity decrease ([2]; 300 mg/kg, 1, 2, 3, 4 and 24 hours, 300 mg/kg)
CCOCCn1c(C2CCN(Cc3ccc(C(C)(C)C)cc3)CC2)nc2ccccc21 [1 CH2 CH3]	7.08	--	--	--	--	--	--	--	4/4	--	--	--	--	--	4/4	47%	70%			
CN1CCC(=C2c3ccccc3CC(=O)c3sccc32)CC1 [Ketotifene, reference compound]		--	--	--	--	--	--	--	--	--	1/4	--	1/4	1/4	2/4					
COCCn1c(C2CCN(Cc3ccc(C(C)(C)C)cc3)CC2)nc2ccccc21 [1 CH3, 2-[1-((4-(1,1-dimethylethyl)phenyl)methyl)piperidine-4-yl]-1-(2-methoxyethyl)-1H-benzimidazole]	6.75	--	--	2/4	--	--	--	3/4	4/4	4/4	4/4	4/4	4/4	4/4	4/4			70%	70%	
CC(C)(C)c1ccc(C(O)CCCN2CCC(C(O)(c3ccccc3)c3ccccc3)CC2)cc1 (stereo not shown) [Terfenadine, reference compound]																37%	20%			
CC(C)OCCn1c(C2CCN(Cc3ccc(C(C)(C)C)cc3)CC2)nc2ccccc21 [1 CH(CH3)2, 2-[1-((4-(1,1-dimethylethyl)phenyl)methyl)piperidin-4-yl]-1-[(2-(1-methylethoxy)ethyl)]-1H-benzimidazole]	7.30	--	--	--	--	--	--	--	--	--	--	--	--	--	--	40%	50%			
CC(C)OCCn1c(C2CCN(CCc3ccc(C(C)(C)C)cc3)CC2)nc2ccccc21 [2 CH(CH3)2, 2-[1-(2-(4-(1,1-dimethylethyl)-phenyl)ethyl)piperidin-4-yl]-1-[2-(1-methylethoxy)ethyl]-1H-benzimidazole]	7.00															30%	25%			
CCOCCn1c(C2CCN(CCc3ccc(C(C)(C)C)cc3)CC2)nc2ccccc21 [2 CH2 CH3, 2-[1-(2-(4-(1,1-dimethylethyl)-phenyl)ethyl)piperidin-4-yl]-1-(2-ethoxyethyl)-1H-benzimidazole]	7.52	--	--	--	--	--	--	--	--	--	--	--	--	--		40%	60%			-- and 2/4
COc1ccc(CCN2CCC(Nc3nc4ccccc4n3Cc3ccc(F)cc3)CC2)cc1 [Astemizole, reference compound]																38%				
